The results in this text go back to patent US20260042762A1 (Kymera Therapeutics, Inc., priority 2018, published 2026).

For assay [1], the target named is T1, MerTK (Homo sapiens, UniProt Q12866).
T1 construct: endogenous in cells; host or cells: Jurkat cells
T1 sequence (Q12866 21-999): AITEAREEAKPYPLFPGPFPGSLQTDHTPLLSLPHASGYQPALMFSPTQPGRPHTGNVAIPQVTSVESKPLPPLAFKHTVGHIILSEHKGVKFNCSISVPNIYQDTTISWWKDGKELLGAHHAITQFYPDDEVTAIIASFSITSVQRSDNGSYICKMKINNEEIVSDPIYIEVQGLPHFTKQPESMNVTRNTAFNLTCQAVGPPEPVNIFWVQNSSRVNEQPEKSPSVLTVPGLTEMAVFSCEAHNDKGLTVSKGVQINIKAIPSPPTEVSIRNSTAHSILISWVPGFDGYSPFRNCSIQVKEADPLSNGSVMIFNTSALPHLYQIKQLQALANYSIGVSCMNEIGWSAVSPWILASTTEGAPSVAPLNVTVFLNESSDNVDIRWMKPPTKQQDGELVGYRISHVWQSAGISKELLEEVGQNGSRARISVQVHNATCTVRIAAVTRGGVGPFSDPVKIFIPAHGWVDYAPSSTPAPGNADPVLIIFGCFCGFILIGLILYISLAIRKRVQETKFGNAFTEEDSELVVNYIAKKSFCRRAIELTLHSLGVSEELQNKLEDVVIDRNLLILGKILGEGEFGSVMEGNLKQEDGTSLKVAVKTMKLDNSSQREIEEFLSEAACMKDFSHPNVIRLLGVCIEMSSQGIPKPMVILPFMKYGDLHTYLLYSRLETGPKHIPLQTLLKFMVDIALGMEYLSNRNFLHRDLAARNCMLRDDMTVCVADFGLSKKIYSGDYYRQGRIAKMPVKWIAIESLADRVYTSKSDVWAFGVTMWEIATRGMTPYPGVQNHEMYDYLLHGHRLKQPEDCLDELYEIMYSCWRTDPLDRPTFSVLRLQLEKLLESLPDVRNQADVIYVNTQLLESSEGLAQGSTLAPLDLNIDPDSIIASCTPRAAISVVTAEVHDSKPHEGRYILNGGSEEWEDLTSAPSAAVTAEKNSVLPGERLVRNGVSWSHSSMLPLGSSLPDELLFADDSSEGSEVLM
Nature of the assay: MerTk degradation in Jurkat cells (Western blot). It is filed as cell-based. Particulars: Jurkat, 4 h, 0.001-1 μM, 4 hour-incubation at 37° C., read-out: Jurkat Max % MerTK Degradation. An outline of the steps:
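MerTK degradation was read by near-infrared Western blot, normalized to actin, in BCA-quantified lysates of Jurkat cells exposed to 0.001-1 μM compound for 4 h at 37 °C.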

In assay [2] the target is T2, MerTK (Mus musculus, UniProt Q60805).
T2 construct: endogenous in cells; host or cells: RAW264 cells
T2 sequence (Q60805 19-994): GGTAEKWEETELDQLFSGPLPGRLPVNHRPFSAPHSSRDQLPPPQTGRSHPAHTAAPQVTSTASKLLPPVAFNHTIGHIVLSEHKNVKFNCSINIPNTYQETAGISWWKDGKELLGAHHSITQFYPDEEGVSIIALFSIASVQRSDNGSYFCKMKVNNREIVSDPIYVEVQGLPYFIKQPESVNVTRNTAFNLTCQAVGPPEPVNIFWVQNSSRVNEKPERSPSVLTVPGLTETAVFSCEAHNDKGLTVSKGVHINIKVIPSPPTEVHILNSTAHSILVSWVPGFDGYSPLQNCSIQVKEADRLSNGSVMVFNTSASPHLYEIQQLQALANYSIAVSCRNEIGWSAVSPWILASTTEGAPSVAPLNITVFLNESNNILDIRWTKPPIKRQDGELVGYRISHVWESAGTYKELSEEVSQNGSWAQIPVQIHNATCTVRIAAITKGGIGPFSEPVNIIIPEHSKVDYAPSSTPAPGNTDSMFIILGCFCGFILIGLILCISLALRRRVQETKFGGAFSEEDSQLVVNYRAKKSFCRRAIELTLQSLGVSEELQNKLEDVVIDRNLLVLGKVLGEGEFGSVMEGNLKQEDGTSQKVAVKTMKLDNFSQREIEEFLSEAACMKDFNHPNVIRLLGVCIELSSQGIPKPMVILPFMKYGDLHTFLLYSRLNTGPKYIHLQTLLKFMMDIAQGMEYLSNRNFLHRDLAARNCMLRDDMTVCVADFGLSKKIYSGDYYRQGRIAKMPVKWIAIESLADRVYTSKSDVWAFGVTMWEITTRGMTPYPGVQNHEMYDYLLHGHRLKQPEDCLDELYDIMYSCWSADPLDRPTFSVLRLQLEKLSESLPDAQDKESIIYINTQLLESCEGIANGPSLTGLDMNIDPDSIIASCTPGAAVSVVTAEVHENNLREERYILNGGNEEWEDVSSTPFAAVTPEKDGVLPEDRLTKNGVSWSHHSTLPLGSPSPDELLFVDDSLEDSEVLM
Description: MerTK degradation in RAW264 cells (Western blot). It is filed as cell-based. The following applies: RAW264.7, 0.001-1 μM, 4 hour-incubation at 37° C., read-out: RAW264 Max % MerTK Degradation. On the procedure:
Compounds were reconstituted in DMSO to make 10 mM stock solutions. RAW264 cells were maintained in DMEM medium containing 10% FBS. Cells were seeded into 6-well plates with 2×10^6 cells per well. 2 μL of diluted compounds were added to cells to the final concentration of 0.001-1 μM. After a 4 hour-incubation at 37° C., cells were washed with DPBS (1×) once. Then RIPA lysis buffer with Halt Protease and Phosphatase Inhibitor Cocktail was added directly to the cells and cells were then incubated on ice for 10 min, then lysate was harvested into 1.5 mL Eppendorf tubes and centrifuged at 14,000 rpm for 10 min at 4° C. and the supernatants were collected for Western blots.
The protein concentration of cell lysates was quantified with Pierce™ BCA Protein Assay Kit. […] BCA working reagents were prepared by mixing BCA reagent A with reagent B in 50: 1 ratio. 200 μL of the BCA working reagents were added to 25 μL of BCA standard or cell lysates in microplate, and mixed thoroughly on a plate shaker for 30 seconds. After incubation at 37° C. for 30 min, the absorbance of samples at 562 nm were measured with EnVision Plate Reader.
Protein lysates were prepared in NuPAGE™ LDS sample buffer and NuPAGE™ sample reducing agent, and incubated at 95° C. for 5 min. […] The proteins were transferred to low fluorescence PVDF membranes using the Trans-Blot Turbo Transfer System. Membranes were then blocked in Odyssey blocking buffer at RT for 1 h followed by primary incubation at 4° C. overnight. The primary antibodies were MerTK goat polyclonal antibody and actin mouse monoclonal antibody. Membranes were washed three times with TBST (1×), and then incubated with IR Dye 800 CW Donkey anti-goat and IR Dye 700 CW Goat anti-mouse secondary antibodies in 1:10,000 dilution at RT for 1 h. The Western blot images were obtained using Odyssey Imaging System.
A general note: Immunoblotting shows a protein as a band on a membrane.

For `CCCCNc1ncc2c(-c3ccc(CN4CCN(CCOCCOCCOCCCc5ccc6c(c5)n(C)c(=O)n6C5CCC(=O)NC5=O)CC4)cc3)cn([C@H]3CC[C@H](O)CC3)c2n1` (stereo partly drawn) [I-40, 3-(5-[3-[2-(2-[2-[4-([4-[2-(Butylamino)-7-[trans-4-hydroxycyclohexyl]-7H-pyrrolo[2,3-d]pyrimidin-5-yl]phenyl]methyl)piperazin-1-yl]ethoxy]ethoxy)ethoxy]propyl]-3-methyl-2-oxo-2,3-dihydro-1H-1,3-benzodiazol-1-yl)piperidine-2,6-dione formic acid], the Dmax on MerTK [1] and on MerTK [2] was over 50% each time.
